Results on five compounds are retold here after patent US9295732B2, “Conjugated TLR7 and/or TLR8 and TLR2 polycationic agonists” (CAYLA, priority 2013, dated 2016).

The target of one assay is T1, human TLR7 (Homo sapiens, UniProt Q9NYK1).
T1 construct: host or cells: HEK293 (HEK-Blue™ hTLR7)
T1 sequence (Q9NYK1 27-1049): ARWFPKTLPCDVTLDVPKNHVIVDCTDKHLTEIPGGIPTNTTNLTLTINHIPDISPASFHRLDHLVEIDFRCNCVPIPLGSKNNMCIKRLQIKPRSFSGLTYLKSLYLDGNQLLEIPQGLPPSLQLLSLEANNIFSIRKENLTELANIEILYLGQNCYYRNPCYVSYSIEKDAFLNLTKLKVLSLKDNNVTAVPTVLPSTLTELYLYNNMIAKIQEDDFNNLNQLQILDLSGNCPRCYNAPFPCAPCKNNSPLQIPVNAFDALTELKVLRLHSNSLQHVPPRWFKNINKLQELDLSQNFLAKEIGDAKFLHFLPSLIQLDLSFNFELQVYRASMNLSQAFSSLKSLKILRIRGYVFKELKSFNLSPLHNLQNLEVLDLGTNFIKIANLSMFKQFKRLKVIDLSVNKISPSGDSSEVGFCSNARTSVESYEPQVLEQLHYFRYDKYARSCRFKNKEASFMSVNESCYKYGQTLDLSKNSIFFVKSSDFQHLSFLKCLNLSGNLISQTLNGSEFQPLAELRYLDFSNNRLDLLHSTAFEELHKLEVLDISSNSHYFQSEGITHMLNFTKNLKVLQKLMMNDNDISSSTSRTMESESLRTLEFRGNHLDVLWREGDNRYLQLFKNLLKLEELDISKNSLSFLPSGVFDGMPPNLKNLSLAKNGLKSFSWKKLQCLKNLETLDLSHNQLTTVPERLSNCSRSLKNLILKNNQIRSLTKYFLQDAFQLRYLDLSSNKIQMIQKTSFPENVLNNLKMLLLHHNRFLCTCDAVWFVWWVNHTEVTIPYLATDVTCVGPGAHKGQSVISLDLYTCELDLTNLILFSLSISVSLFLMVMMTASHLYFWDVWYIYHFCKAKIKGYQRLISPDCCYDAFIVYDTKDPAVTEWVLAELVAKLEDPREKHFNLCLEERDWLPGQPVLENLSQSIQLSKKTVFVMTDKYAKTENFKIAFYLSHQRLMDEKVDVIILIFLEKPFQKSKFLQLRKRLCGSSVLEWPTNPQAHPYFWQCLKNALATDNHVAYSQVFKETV
Kind of assay: HEK-Blue hTLR7 NF-κB/AP-1 SEAP reporter assay. In kind it is cell-based. The settings on record: HEK-Blue hTLR7 cells, 10 μg/mL to 10 pg/ml, 24 hours, OD at 655 nm, FIG. 1. The procedure:
(§1) Cell-based assays were carried out using TLR7 and TLR2 reporter cell lines (InvivoGen). The reporter cell lines are engineered HEK293 cells, a human embryonic kidney cell line (ATCC, CRL-1573) that stably express either murine TLR7 (HEK-Blue™ mTLR7) or human TLR7 (HEK-Blue™ hTLR7) or human TLR2 (HEK-Blue™ hTLR2) with an NF-κB-inducible secreted embryonic alkaline phosphatase (SEAP) as the reporter gene. The SEAP reporter gene is under the control of the NF-κB and AP-1-inducible promoter, which, upon treatment with a corresponding TLR ligand and activation of NF-κB and AP-1, induces the production of SEAP. Detection of SEAP is measured following culturing cells in HEK-Blue™ Detection media (InvivoGen). HEK-Blue™ Detection contains a SEAP substrate that when hydrolysed by SEAP produces a colorimetric change allowing for detection of SEAP as the protein is secreted. […] These assays were carried out using RAW-Blue™ Cells (InvivoGen), derived from RAW 264.7 mouse leukemic monocyte macrophage cell line (ATCC, CRL 2278) stably overexpressing a NF-B/AP-1 inducible SEAP reporter constructs.
(§2) To perform the assay, cells were seeded on 96 well microliter plates at 50,000 or 100,000 cells per well for HEK-Blue™ Cells and RAW-Blue™ Cells respectively, and cultured at 37° C. in the presence of the conjugated compounds The TLR7-TLR2 polyamine molecules were prepared as follows: First, stock solutions of the conjugated compounds of the invention were prepared in ethanol or water to a concentration of 10 mg/ml.
(§3) The working dilutions of the conjugated TLR7-TLR2 polyamine agonists made up in water or PBS were directly added to the reporter cell lines at a final concentration ranging from 10 μg/mL to 10 pg/ml and incubated at 37° C. for 24 hours. After 24 hours of incubation, the effect on reporter gene activity was determined by reading the OD at 655 nm using iMark™ Microplate Reader (BIO-RAD).

In a further assay the target is T2, murine TLR7 (Mus musculus, UniProt P58681).
T2 construct: host or cells: HEK293 (HEK-Blue™ mTLR7)
T2 sequence (P58681 27-1050): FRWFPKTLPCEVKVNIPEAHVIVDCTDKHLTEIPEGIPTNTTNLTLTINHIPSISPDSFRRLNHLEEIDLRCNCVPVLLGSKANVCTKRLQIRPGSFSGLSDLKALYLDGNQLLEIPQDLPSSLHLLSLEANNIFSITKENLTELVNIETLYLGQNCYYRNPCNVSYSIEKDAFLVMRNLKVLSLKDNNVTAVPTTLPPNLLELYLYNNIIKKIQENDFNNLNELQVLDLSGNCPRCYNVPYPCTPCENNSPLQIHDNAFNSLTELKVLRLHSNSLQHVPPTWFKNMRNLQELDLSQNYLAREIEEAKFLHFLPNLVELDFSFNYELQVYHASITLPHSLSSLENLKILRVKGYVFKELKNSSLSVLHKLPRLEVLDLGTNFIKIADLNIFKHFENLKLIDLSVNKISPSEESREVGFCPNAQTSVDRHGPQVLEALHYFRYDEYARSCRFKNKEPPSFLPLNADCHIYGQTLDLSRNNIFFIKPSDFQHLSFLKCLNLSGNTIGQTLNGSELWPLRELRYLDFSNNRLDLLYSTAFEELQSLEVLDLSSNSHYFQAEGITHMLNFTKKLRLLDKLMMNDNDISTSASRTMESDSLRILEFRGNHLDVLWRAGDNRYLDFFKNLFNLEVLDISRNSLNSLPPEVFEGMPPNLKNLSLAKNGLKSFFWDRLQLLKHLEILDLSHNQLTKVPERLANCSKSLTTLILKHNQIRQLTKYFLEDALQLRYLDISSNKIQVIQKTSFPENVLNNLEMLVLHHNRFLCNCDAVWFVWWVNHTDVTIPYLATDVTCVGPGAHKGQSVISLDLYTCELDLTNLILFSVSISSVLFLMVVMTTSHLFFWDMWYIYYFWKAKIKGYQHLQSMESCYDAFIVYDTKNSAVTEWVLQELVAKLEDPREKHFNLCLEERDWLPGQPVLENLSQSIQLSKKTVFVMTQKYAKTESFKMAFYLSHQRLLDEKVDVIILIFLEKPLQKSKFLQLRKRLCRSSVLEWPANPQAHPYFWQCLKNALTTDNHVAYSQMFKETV
As to the kind of experiment: HEK-Blue mTLR7 NF-κB/AP-1 SEAP reporter assay. It counts as cell-based. To be noted: HEK-Blue mTLR7 cells, 10 μg/mL to 10 pg/ml, 24 hours, OD at 655 nm, FIG. 2. How it is done: as §1, §2, §3

The next assay deals with T3, human TLR2 (Homo sapiens, UniProt O60603).
T3 construct: host or cells: HEK293 (HEK-Blue™ hTLR2)
T3 sequence (O60603 21-784): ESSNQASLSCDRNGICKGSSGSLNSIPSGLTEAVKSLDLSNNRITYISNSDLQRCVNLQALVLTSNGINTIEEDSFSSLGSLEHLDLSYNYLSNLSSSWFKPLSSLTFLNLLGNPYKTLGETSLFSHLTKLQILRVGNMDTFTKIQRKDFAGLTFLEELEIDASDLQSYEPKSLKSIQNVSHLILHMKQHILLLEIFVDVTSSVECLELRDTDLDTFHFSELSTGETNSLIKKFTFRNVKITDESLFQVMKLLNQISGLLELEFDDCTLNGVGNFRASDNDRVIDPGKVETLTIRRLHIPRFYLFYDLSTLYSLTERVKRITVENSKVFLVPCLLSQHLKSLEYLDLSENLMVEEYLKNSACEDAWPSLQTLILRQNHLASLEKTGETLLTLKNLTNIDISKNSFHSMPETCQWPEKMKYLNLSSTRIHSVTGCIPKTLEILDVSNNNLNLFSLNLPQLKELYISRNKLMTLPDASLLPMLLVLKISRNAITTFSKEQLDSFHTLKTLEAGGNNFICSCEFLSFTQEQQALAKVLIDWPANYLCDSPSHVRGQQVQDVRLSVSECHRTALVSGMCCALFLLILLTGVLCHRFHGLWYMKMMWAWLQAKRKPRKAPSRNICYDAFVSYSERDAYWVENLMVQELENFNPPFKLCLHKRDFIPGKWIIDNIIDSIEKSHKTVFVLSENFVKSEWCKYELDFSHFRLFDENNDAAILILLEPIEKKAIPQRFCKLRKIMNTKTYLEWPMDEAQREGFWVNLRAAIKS
Kind of assay: HEK-Blue hTLR2 NF-κB/AP-1 SEAP reporter assay. In kind it is cell-based. To be noted: HEK-Blue hTLR2 cells, 10 μg/mL to 10 pg/ml, 24 hours, OD at 655 nm, FIG. 3. The procedure: as §1, §2, §3

For assay [1], the system named is endogenous TLR2 and TLR7 in RAW-Blue™ Cells. As to the kind of experiment: RAW-Blue Cells NF-κB/AP-1 SEAP reporter assay. It counts as cell-based, mouse. To be noted: 24 hours, OD at 655 nm, FIG. 4. How it is done:
as §1, §2, §3

The subject of another assay is plasmid DNA (pDNA). Kind of assay: Gel shift (mobility shift) assay of pDNA complexation. In kind it is binding. To be noted: pDNA:molecule ratio 3:24 (w:w), 0.8% agarose gel, compared to pDNA alone. The procedure: Then, 10 μl of pDNA:TLR7-TLR2 polyamine molecule complexes and 2 μl of charge buffer were mixed and loaded into wells of a 0.8% agarose gel. Samples were migrated through the gel in TAE buffer under 135 voltage for 21 mins and the migration of the pDNA was visualized following ethidium bromide staining under UV light. The ability of TLR7-TLR2 polyamine molecules to complex/associate with the pDNA was identified by partial or complete retardation of the pDNA migration toward the anode in the gel compared to pDNA alone. […] Ethidium bromide intercalation of pDNA in complex with molecules allowed visualization of complexed pDNA as a smear in the wells of the gel.

With `CCCCCCCCCCCCCCCC(=O)OCC(CSC[C@H](N)C(=O)N[C@@H](CO)C(=O)N[C@@H](CCCCN)C(=O)N[C@@H](CCCCNC(=O)c1ccc(Cn2c(O)nc3c(N)nc(NCCCC)nc32)cc1)C(=O)N[C@@H](CCCCN)C(=O)N[C@@H](CCCCN)C(=O)O)OC(=O)CCCCCCCCCCCCCCC` (stereo partly drawn) [CL531, (2S,5S,8S,11S,14S,17R)-17-amino-8-(4-(4-((6-amino-2-(butylamino)-8-hydroxy-9H-purin-9-yl)methyl)benzamido)butyl)-2,5,11-tris(4-aminobutyl)-14-(hydroxymethyl)-4,7,10,13,16,24-hexaoxo-21-(palmitoyloxy)-23-oxa-19-thia-3,6,9,12,15-pentaaza nonatriacontan-1-oic acid], the “ability to activate hTLR7” value at human TLR7 is “activate hTLR7”. Besides, at murine TLR7, the “ability to activate mTLR7” value is recorded as “activate mTLR7”. At human TLR2, the “ability to activate hTLR2” value is on record as “activate hTLR2”. For the same compound, the “ability to activate endogenous TLR2 and TLR7 in RAW-Blue Cells” value (“ability … in RAW-Blue Cells” for short) in assay [1] was “activate endogenous TLR2 and TLR7”. For the same compound, the “ability to complex pDNA (retardation of pDNA migration in agarose gel)” value (from here on “ability to complex pDNA”) in the assay with plasmid DNA (pDNA) is “inability to migrate through an agarose gel”.

Turning to `CCCCCCCCCCCCCCCC(=O)OCC(CSC[C@H](N)C(=O)N[C@@H](CO)C(=O)N[C@@H](CCCCNC(=O)c1ccc(Cn2c(O)nc3c(N)nc(NCCCC)nc32)cc1)C(=O)N[C@@H](CCCCN)C(=O)N[C@@H](CCCCN)C(=O)N[C@@H](CCCCN)C(=O)O)OC(=O)CCCCCCCCCCCCCCC` (stereo partly drawn) [CL533, (2S,5S,8S,11S,14S,17R)-17-amino-11-(4-(4-((6-amino-2-(butylamino)-8-hydroxy-9H-purin-9-yl)methyl)benzamido)butyl)-2,5,8-tris(4-aminobutyl)-14-(hydroxylmethyl)-4,7,10,13,16,24-hexaoxo-21-(palmitoyloxy)-23-oxa-19-thia-3,6,9,12,15-pentaazanonatria contan-1-oic acid], at human TLR7, the “ability to activate hTLR7” value is listed as “activate hTLR7”. Moreover, the “ability to activate mTLR7” value at murine TLR7 is listed as “activate mTLR7”. Further, the “ability to activate hTLR2” value on human TLR2 was “activate hTLR2”. Moreover, in assay [1], the “ability … in RAW-Blue Cells” value was “activate endogenous TLR2 and TLR7”. The “ability to complex pDNA” value in the assay with plasmid DNA (pDNA) was “inability to migrate through an agarose gel”.

For the compound `CCCCCCCCCCCCCCCC(=O)OCC(CSC[C@H](N)C(=O)N[C@@H](CO)C(=O)N[C@@H](CCCCN)C(=O)N[C@@H](CCCCN)C(=O)N[C@@H](CCCCNC(=O)c1ccc(Cn2c(O)nc3c(N)nc(NCCCC)nc32)cc1)C(=O)N[C@@H](CCCCN)C(=O)O)OC(=O)CCCCCCCCCCCCCCC` (stereo partly drawn) [CL530, (2S,5S,8S,11S,14S,17R)-17-amino-5-(4-(4-((6-amino-2-(butylamino)-8-hydroxy-9H-purin-9-yl)methyl)benzamido)butyl)-2,8,11-tris(4-aminobutyl)-14-(hydroxymethyl)-4,7,10,13,16,24-hexaoxo-21-(palmitoyloxy)-23-oxa-19-thia-3,6,9,12,15-pentaaza nonatriacontan-1-oic acid], the “ability to activate hTLR7” value on human TLR7 was “activate hTLR7”. At murine TLR7, the “ability to activate mTLR7” value is “activate mTLR7”. Besides, the “ability to activate hTLR2” value on human TLR2 is listed as “activate hTLR2”. The “ability … in RAW-Blue Cells” value in assay [1] was “activate endogenous TLR2 and TLR7”. The “ability to complex pDNA” value with plasmid DNA (pDNA) was “inability to migrate through an agarose gel”.

In the case of `CCCCCCCCCCCCCCCC(=O)N[C@@H](CSCC(COC(=O)CCCCCCCCCCCCCCC)OC(=O)CCCCCCCCCCCCCCC)C(=O)N[C@@H](CO)C(=O)N[C@@H](CCCCN)C(=O)N[C@@H](CCCCNC(=O)c1ccc(Cn2c(O)nc3c(N)nc(NCCCC)nc32)cc1)C(=O)N[C@@H](CCCCN)C(=O)N[C@@H](CCCCN)C(=O)O` (stereo partly drawn) [CL536, (2S,5S,8S,11S,14S,17R)-8-(4-(4-((6-amino-2-(butylamino)-8-hydroxy-9H-purin-9-yl)methyl)benzamido)butyl)-2,5,11-tris(4-aminobutyl)-14-(hydroxymethyl)-4,7,10,13,16,24-hexaoxo-17-palmitamido-21-(palmitoyloxy)-23-oxa-19-thia-3,6,9,12,15-pentaazanonatriacontan-1-oic acid], at human TLR7, the “ability to activate hTLR7” value is “activate hTLR7”. Moreover, at murine TLR7, the “ability to activate mTLR7” value was “activate mTLR7”. Moreover, the “ability to activate hTLR2” value on human TLR2 is “activate hTLR2”. Also, the “ability … in RAW-Blue Cells” value in assay [1] was “activate endogenous TLR2 and TLR7”. Also, in the assay with plasmid DNA (pDNA), the “ability to complex pDNA” value is given as “inability to migrate through an agarose gel”.

For `CCCCCCCCCCCCCCCC(=O)OCC(CSC[C@H](N)C(=O)Nc1ccc(Cn2c(O)nc3c(N)nc(NCCCC)nc32)cc1)OC(=O)CCCCCCCCCCCCCCC` (stereo partly drawn) [CL401, reference compound], the “ability to complex pDNA” value in the assay on plasmid DNA (pDNA) is “lacks the ability to complex pDNA”.
